For this assay, the system named is peripheral blood mononuclear cells (PBMCs) from healthy donors. The assay can be described thus: IFN production by R848-activated PBMCs, quantified with twINNE luciferase reporter cell line. Particulars: Homo sapiens, PBMC; read-out: IC50 of anti-inflammatory activity (IFN production by activated PBMCs). Format: cell-based, human. The procedure, abridged: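 Healthy-donor PBMCs (4.10^6/mL, RPMI/10% FBS) were pre-treated with compound, then stimulated with R848 at 5 μg/mL for 24 h. Supernatants were put on twINNE cells, which carry luciferase under five ISREs, for 24 h, and Bright-Glo luminescence was read. IC50 values came from variable-slope dose-response fits.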

Structures can show the parent of a compound that is named as a salt. Bounds are passed on as bounds.

Broadly, the IC50 is the midpoint of a concentration-inhibition curve. Take `Clc1nccc2sc(CSC3=NCC(Cc4ccccc4)N3)cc12` (stereo not drawn) [Example 61, 2-(((5-benzyl-4,5-dihydro-1H-imidazol-2-yl)thio)methyl)-4-chlorothieno[3,2-c]pyridine dihydrochloride]: the IC50 was at most 10 µM. `C1=C(CSC2=NCc3ccccc3N2)N2CC(Cc3cccs3)N=C2S1` (stereo not drawn) [Example 63, 3-(((3,4-dihydroquinazolin-2-yl)thio)methyl)-6-(thiophen-2-ylmethyl)-5,6-dihydroimidazo[2,1-b]thiazole dihydrochloride]: the IC50 is at most 10 µM. The value for `Clc1ccc2c(c1)CN1C(CSC3=NCC(Cc4cccs4)N3)=CSC1=N2` (stereo not drawn) [Example 64, 7-chloro-3-(((5-(thiophen-2-ylmethyl)-4,5-dihydro-1H-imidazol-2-yl)thio)methyl)-5H-thiazolo[2,3-b]quinazoline dihydrochloride] was at most 10 µM. `Clc1ccc2c(c1)CN1C(CSC3=NCc4ccc(Br)cc4N3)=CSC1=N2` [Example 66, 3-(((7-bromo-1,4-dihydroquinazolin-2-yl)thio)methyl)-7-chloro-5H-thiazolo[2,3-b]quinazoline dihydrochloride]: the IC50 is at most 10 µM. The value for `Clc1ccc2c(c1)CN1C(CSC3=NCc4cc(Br)ccc4N3)=CSC1=N2` [Example 67, 3-(((6-bromo-1,4-dihydroquinazolin-2-yl)thio)methyl)-7-chloro-5H-thiazolo[2,3-b]quinazoline dihydrochloride] was 10 to 32 µM.

As to `Clc1ccc2c(c1)CN1C(CSC3=NCC4(CC4)N3)=CSC1=N2` [Example 68, 3-(((4,6-diazaspiro[2.4]hept-5-en-5-yl)thio)methyl)-7-chloro-5H-thiazolo[2,3-b]quinazoline dihydrochloride], the IC50 is at most 10 µM. Regarding `Brc1ccc2c(c1)CN1C(CSC3=NCc4ccccc4N3)=CSC1=N2` [Example 69, 7-bromo-3-(((1,4-dihydroquinazolin-2-yl)thio)methyl)-5H-thiazolo[2,3-b]quinazoline dihydrochloride], the IC50 is at most 10 µM. As to `Brc1ccc2c(c1)N=C1SC=C(CSC3=NCc4ccccc4N3)N1C2` [Example 70, 8-bromo-3-(((1,4-dihydroquinazolin-2-yl)thio)methyl)-5H-thiazolo[2,3-b]quinazoline dihydrochloride], the IC50 is at most 10 µM. Take `c1ccc2c(c1)CN(CCSC1=NCc3ccccc3N1)C2` [Example 71, 2-((2-(isoindolin-2-yl)ethyl)thio)-3,4-dihydroquinazoline dihydrochloride]: the IC50 was in the range of 10 to 32 µM.

Regarding `CC1(c2ccccc2)CN=C(SCC2=CSC3=Nc4ccc(Cl)cc4CN23)N1` (stereo not drawn) [Example 72, 7-chloro-3-(((5-methyl-5-phenyl-4,5-dihydro-1H-imidazol-2-yl)thio)methyl)-5H-thiazolo[2,3-b]quinazoline dihydrochloride], the IC50 was at most 10 µM. Consider `CC1(C)N=C(SCC2=CSC3=Nc4cccc(F)c4CN23)Nc2ccccc21` [Example 73, 3-(((4,4-dimethyl-1,4-dihydroquinazolin-2-yl)thio)methyl)-6-fluoro-5H-thiazolo[2,3-b]quinazoline dihydrochloride], for which the concentration for half-maximal inhibition (IC50) is above 32 µM. Regarding `Clc1ccc2c(ccn2CCSC2=NCc3ccccc3N2)c1` [Example 74, 2-((2-(5-chloro-1H-indol-1-yl)ethyl)thio)-3,4-dihydroquinazoline hydrochloride], the IC50 is above 32 µM.

For `CC1(C)N=C(SCC2=CSC3=Nc4ccc(Cl)cc4CN23)Nc2ccccc21` [Example 75, 7-chloro-3-(((4,4-dimethyl-1,4-dihydroquinazolin-2-yl)thio)methyl)-5H-thiazolo[2,3-b]quinazoline dihydrochloride], the IC50 is above 32 µM. Regarding `Clc1ccc2c(c1)CN1C(CSC3=NCCc4ccccc4N3)=CSC1=N2` [Example 76, 7-chloro-3-(((4,5-dihydro-1H-benzo[d][1,3]diazepin-2-yl)thio)methyl)-5H-thiazolo[2,3-b]quinazoline dihydrochloride], the IC50 was 10 to 32 µM. With `CC1(C)N=C(SCCN2CCCC2)Nc2ccccc21` [Example 78, 4,4-dimethyl-2-((2-(pyrrolidin-1-yl)ethyl)thio)-1,4-dihydroquinazoline dihydrochloride], the IC50 is above 32 µM. The value for `Clc1ccc2c(c1)CN1C(=N2)SC(Br)=C1CSC1=NCc2ccccc2N1` [Example 79, 2-bromo-7-chloro-3-(((1,4-dihydroquinazolin-2-yl)thio)methyl)-5H-thiazolo[2,3-b]quinazoline dihydrochloride] was at most 10 µM; that for `Fc1cccc2c1CN=C(SCC1=CSC3=Nc4ccc(Cl)cc4CN13)N2` [Example 80, 7-chloro-3-(((5-fluoro-1,4-dihydroquinazolin-2-yl)thio)methyl)-5H-thiazolo[2,3-b]quinazoline dihydrochloride] was at most 10 µM; that for `Clc1cccc2c1CN1C(CSC3=NCc4ccccc4N3)=CSC1=N2` [Example 81, 6-chloro-3-(((1,4-dihydroquinazolin-2-yl)thio)methyl)-5H-thiazolo[2,3-b]quinazoline dihydrochloride] was at most 10 µM. The value for `Fc1ccc2c(c1)N=C1SC=C(CSC3=NCc4ccccc4N3)N1C2` [Example 82, 3-(((1,4-dihydroquinazolin-2-yl)thio)methyl)-8-fluoro-5H-thiazolo[2,3-b]quinazoline dihydrochloride] was at most 10 µM.

With `Fc1ccc2c(c1)CN=C(SCC1=CSC3=Nc4ccc(Cl)cc4CN13)N2` [Example 83, 7-chloro-3-(((6-fluoro-1,4-dihydroquinazolin-2-yl)thio)methyl)-5H-thiazolo[2,3-b]quinazoline dihydrochloride], the IC50 is at most 10 µM.

With `Fc1ccc2c(c1)CN1C(CSC3=NCc4ccccc4N3)=CSC1=N2` [Example 84, 3-(((1,4-dihydroquinazolin-2-yl)thio)methyl)-7-fluoro-5H-thiazolo[2,3-b]quinazoline dihydrochloride], the IC50 was at most 10 µM. In the case of `Brc1cccc2c1N=C1SC=C(CSC3=NCc4ccccc4N3)N1C2` [Example 85, 9-bromo-3-(((1,4-dihydroquinazolin-2-yl)thio)methyl)-5H-thiazolo[2,3-b]quinazoline dihydrochloride], the IC50 is at most 10 µM. Consider `Fc1cc(Cl)cc2c1N=C1SC=C(CSC3=NCc4ccccc4N3)N1C2` [Example 86, 7-chloro-3-(((1,4-dihydroquinazolin-2-yl)thio)methyl)-9-fluoro-5H-thiazolo[2,3-b]quinazoline dihydrochloride], for which the IC50 is at most 10 µM.

Turning to `CC1(C)N=C(SCC2=CSC3=NC(Cc4ccccc4)CN23)Nc2ccccc21` (stereo not drawn) [Example 87, 6-benzyl-3-(((4,4-dimethyl-1,4-dihydroquinazolin-2-yl)thio)methyl)-5,6-dihydroimidazo[2,1-b]thiazole dihydrochloride], the IC50 is at most 10 µM. In the case of `C1=C(CSC2=NCCc3ccccc3N2)N2CC(Cc3ccccc3)N=C2S1` (stereo not drawn) [Example 88, 6-benzyl-3-(((4,5-dihydro-1H-benzo[d][1,3]diazepin-2-yl)thio)methyl)-5,6-dihydroimidazo[2,1-b]thiazole dihydrochloride], the IC50 is at most 10 µM. For `Fc1ccc2c(c1)NC(SCC1=CSC3=NC(Cc4ccccc4)CN13)=NC2` (stereo not drawn) [Example 89, 6-benzyl-3-(((7-fluoro-1,4-dihydroquinazolin-2-yl)thio)methyl)-5,6-dihydroimidazo[2,1-b]thiazole dihydrochloride], the IC50 is at most 10 µM. The value for `c1ccc2c(c1)CN=C(SCCN1CCCCCC1)N2` [Example 90, 2-((2-(azepan-1-yl)ethyl)thio)-1,4-dihydroquinazoline dihydrochloride] was at most 10 µM. For `c1ccc2c(c1)CN=C(SCCN1CCCCC1)N2` [Example 91, 2-((2-(piperidin-1-yl)ethyl)thio)-1,4-dihydroquinazoline dihydrochloride], the IC50 was at most 10 µM. `Clc1ccc2c(c1)CN1C(CSC3=NCc4cccc(Br)c4N3)=CSC1=N2` [Example 92, 3-(((8-bromo-1,4-dihydroquinazolin-2-yl)thio)methyl)-7-chloro-5H-thiazolo[2,3-b]quinazoline dihydrochloride]: the IC50 was at most 10 µM. For `CCCCN1Cc2ccccc2N=C1SCC1=CSC2=NC(Cc3ccccc3)CN12` (stereo not drawn) [Example 93, 6-benzyl-3-(((3-butyl-3,4-dihydroquinazolin-2-yl)thio)methyl)-5,6-dihydroimidazo[2,1-b]thiazole dihydrochloride], the IC50 is at most 10 µM. Take `Clc1ccc(CC2CN3C(CSC4=NCc5ccccc5N4)=CSC3=N2)cc1` (stereo not drawn) [Example 94, 6-(4-chlorobenzyl)-3-(((1,4-dihydroquinazolin-2-yl)thio)methyl)-5,6-dihydroimidazo[2,1-b]thiazole dihydrochloride]: the IC50 is at most 10 µM. The value for `CC1(C)c2ccccc2N=C2SC=C(CSC3=NCc4ccccc4N3)N21` [Example 95, 3-(((1,4-dihydroquinazolin-2-yl)thio)methyl)-5,5-dimethyl-5H-thiazolo[2,3-b]quinazoline dihydrochloride] was at most 10 µM; that for `Cl.c1ccc2c(c1)CN=C(SCc1csc3nc4ccccc4n13)N2` [Example 96, 3-(((3,4-dihydroquinazolin-2-ylthio)methyl)benzo[4,5]imidazo[2,1-b]thiazole hydrochloride] was above 32 µM; that for `CN1CCC(SC2=NC(C)(C)c3ccccc3N2)C1` (stereo not drawn) [Example 98, 4,4-dimethyl-2-((1-methylpyrrolidin-3-yl)thio)-1,4-dihydroquinazoline dihydrochloride] was above 32 µM.

Take `CCCCN1C(SCC2=CSC3=NC(Cc4ccccc4)CN23)=NCc2ccccc21` (stereo not drawn) [Example 99, 6-benzyl-3-(((1-butyl-1,4-dihydroquinazolin-2-yl)thio)methyl)-5,6-dihydroimidazo[2,1-b]thiazole dihydrochloride]: the IC50 is at most 10 µM.

As to `CN1CCC(SC2=NCc3ccccc3N2)C1` (stereo not drawn) [Example 100, 2-((1-methylpyrrolidin-3-yl)thio)-1,4-dihydroquinazoline dihydrochloride], the IC50 is at most 10 µM.

The values are drawn from US20240018125A1, “CYCLIC ISOTHIOUREA DERIVATIVES AS CXCR4 MODULATORS” (ERMIUM THERAPEUTICS, priority 2020, published 2024).
